Laboratory results published in patent US7439359B2, “Small molecule compositions for binding to hsp90” (Sloan-Kettering Institute for Cancer Research, priority 2000, dated 2008).
Like-named read-outs stand apart in the source and are kept apart here.

What was measured:
MCF-7 = assay: Growth inhibition, sulforhodamine B assay; type: cell-based, human; settings: unit inferred
Description: (§1) Protein Assays. […] Antiproliferative index. […] Tissue Culture IC50 Studies. […] Her2 degradation. Total Protein Assays. […] Binding studies. Solid phase competition assays.

MDA-MB-468 = assay: Growth inhibition, sulforhodamine B assay; type: cell-based, human; settings: for IC50: unit inferred
Description: as §1

Hsp90 beta = target: T1, Hsp90 beta (Homo sapiens, UniProt P08238); assay: Solid phase competition assay with GM-beads, Hsp90 beta immunoblot; type: binding; settings: for EC50: competition with immobilized GM, unit inferred, read-out: EC50 Hsp90 β
T1 construct: purchased Stressgen SPP-770
Protocol: (§2) A test was also designed which allows identification of compounds which interact differentially with Hsp90-alpha and Hsp90-beta. […] An Hsp90 protein preparation containing both the alpha and the beta form is incubated with the support in the presence or absence of a compound to be evaluated. […] After washing, the material bound to the support is eluted and the eluate is separated on an SDS/PAGE gel and visualized by immunoblotting with anti-Hsp90-alpha and anti-Hsp90-beta to determine the amount of material bound. Alternatively, if quantitative amounts of the Hsp90 protein preparation or known ratios of alpha to beta forms of Hsp90 are used in the first instance, the unbound material can be analyzed by a similar technique.
as §1

Hsp90alpha = Hsp90alpha (Homo sapiens, UniProt P07900); assay: Solid phase competition assay with GM-beads, Hsp90 alpha immunoblot; type: binding; design: purchased Stressgen SPP-770; settings: for EC50: competition with immobilized GM, unit inferred, read-out: EC50 Hsp90 α
Protocol: as §2, §1

Her2 = Her2 total protein degradation in MCF-7 cells (immunoblot);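 also: Her2 levels judged by SDS-PAGE western blot of whole-cell lysates probed with anti-Her2 antibody, compared with DMSO vehicle-treated cells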
Protocol: For assays on protein levels, cells were grown to 60-70% confluence exposed to drugs or DMSO vehicle for the indicated time periods. Lysates were prepared using 50 mM Tris pH=7.4, 2% SDS and 10% glycerol lysis buffer. Protein concentration was determined using the BCA kit (Pierce Chemical Co.), according to the manufacturers instructions. Clarified protein lysates (20-50 mg) were electrophoretically resolved on denaturing SDS-PAGE, transferred to nitrocellulose and probed with the following primary antibodies: anti-Her2 (C-18), -Her3 (C-17), -Raf-1, -cyclin D1, -Rb (C-15) (Santa Cruz), anti-hsp90, -hsp70, -ER (Stressgen), anti-Trap-1 (MSK81), anti-b-actin, -tubulin (Sigma), anti-PI3K (p85) (Upstate Biotechnologies).
After 24 hours, the cells were lysed and the amount of Her2 in the cells was evaluated.
Protein Assays. Cells were grown to 60-70% confluence and exposed to drugs or DMSO vehicle for the indicated time periods. Lysates were prepared using 50 mM Tris pH 7.4, 2% SDS and 10% glycerol lysis buffer. Protein concentration was determined using the BCA kit (Pierce Chemical Co.), according to the manufacturers instructions. Clarified protein lysates (20-50 mg) were electrophoretically resolved on denaturing SDS-PAGE, transferred to nitrocellulose and probed with the following primary antibodies: anti-Her2 (C-18), -Her3 (C-17), -Raf-1, -cyclin D1, -Rb (C-15) (Santa Cruz Biotechnology), anti-hsp90, -hsp70 (Stressgen) anti-Trap-1 (MSK81), anti-b-actin, -tubulin (Sigma), ER, anti-PI3K (p85) (Upstate Biotechnologies). […] Her2 degradation. Total Protein Assays. Cells were grown to 60-70% confluence and exposed to drugs or DMSO vehicle for the indicated time periods. Lysates were prepared using 50 mM Tris pH 7.4, 2% SDS and 10% glycerol lysis buffer. Protein concentration was determined using the BCA kit (Pierce Chemical Co.), according to the manufacturers instructions. Clarified protein lysates (20-50 μg) were electrophoretically resolved on denaturing SDS-PAGE, transferred to nitrocellulose and probed with the anti-Her2 primary antibody (C-18) (Santa Cruz Biotechnology).

BT-474 = assay: Growth inhibition, sulforhodamine B assay; type: cell-based; settings: Homo sapiens, 72 hours, unit inferred
Description: as §1

[1] = Homo sapiens, MDA-MB-468, 72 hours
[2] = Homo sapiens, MCF7, read-out: IC50 Her2/MCF-7
[3] = read-out: IC50 Her2/MCF-7, Her2 total protein degradation in MCF-7, unit inferred

T1 sequence (P08238 whole entry): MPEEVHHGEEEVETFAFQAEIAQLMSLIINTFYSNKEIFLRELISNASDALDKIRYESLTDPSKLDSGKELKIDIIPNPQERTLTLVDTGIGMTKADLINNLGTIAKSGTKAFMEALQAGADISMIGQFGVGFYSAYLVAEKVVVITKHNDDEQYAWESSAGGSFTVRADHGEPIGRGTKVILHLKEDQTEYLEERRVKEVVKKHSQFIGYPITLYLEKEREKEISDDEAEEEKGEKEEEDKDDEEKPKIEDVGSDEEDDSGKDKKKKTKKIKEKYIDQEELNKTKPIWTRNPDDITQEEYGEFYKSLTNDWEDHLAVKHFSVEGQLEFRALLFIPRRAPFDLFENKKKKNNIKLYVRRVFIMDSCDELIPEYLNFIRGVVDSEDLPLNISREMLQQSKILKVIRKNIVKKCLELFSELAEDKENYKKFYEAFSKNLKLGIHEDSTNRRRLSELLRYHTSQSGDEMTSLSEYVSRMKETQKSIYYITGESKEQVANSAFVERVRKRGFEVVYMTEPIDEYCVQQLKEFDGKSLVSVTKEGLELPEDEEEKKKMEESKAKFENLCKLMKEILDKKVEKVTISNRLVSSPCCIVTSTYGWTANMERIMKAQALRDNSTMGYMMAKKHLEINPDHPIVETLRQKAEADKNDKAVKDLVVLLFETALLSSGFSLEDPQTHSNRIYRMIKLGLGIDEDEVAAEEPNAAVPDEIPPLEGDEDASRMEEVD

Row | Compound | IC50 (MCF-7; 72 hours) [µM] | IC50 (MDA-MB-468; 72 hours) [µM] | binding to hsp 90-beta (Hsp90 beta) | binding to hsp 90-alpha (Hsp90alpha) | IC50 (MCF-7; Homo sapiens, MCF7, 72 hours) [µM] | IC50 (MDA-MB-468; [1]) [µM] | IC50 (Her2; [2]) [µM] | EC50 (Hsp90 beta) [µM] | EC50 (Hsp90alpha) [µM] | IC50 (BT-474) [µM] | IC50 MDA-468 (MDA-MB-468; 72 hours, unit not given) | IC50 (Her2; [3]) [µM]
1 | CC=CCn1c(Cc2cc(OC)c(OC)c(OC)c2)nc2c(N)ncnc21 (mixture of isomers) [PU11] | 51 | 66 | – | – | – | – | – | – | – | – | – | –
2 | CCCCn1c(Oc2cc(OC)c(OC)c(OC)c2)nc2c(N)ncnc21 [Compound 69, 9-Butyl-8-(3,4,5-trimethoxy-phenoxy)-9H-purin-6-ylamine] | – | – | weak binding | no detectable binding | – | – | – | – | – | – | – | –
3 | CCCCn1c(Cc2cc(OC)c(OC)c(OC)c2)nc2c(N)nc(F)nc21 [PU3F, 2-Fluoro-9-butyl-8-(3,4,5-trimethoxy-benzyl)-9H-purin-6-ylamine] | – | – | – | – | 24 | 30 | 25 | 3.5 | 6 | 29 | – | –
4 | CCCCn1c(Cc2c(Br)c(OC)c(OC)c(OC)c2Br)nc2c(N)ncnc21 [PU3PhBr2, 9-butyl-8-(2,6-dibromo-3,4,5-trimethoxy-benzyl)-9H-purin-6-ylamine] | – | – | – | – | 30 | 21 | > 100 | > 100 | > 100 | – | – | –
5 | CCCCn1c(Cc2cc(OC)c(OC)c(OC)c2Br)nc2c(N)ncnc21 [PU3PhBr, 9-butyl-8-(2-bromo-3,4,5-trimethoxy-benzyl)-9H-purin-6-ylamine] | – | – | – | – | 25 | – | 50 | 11.7 | 35.3 | 60 | INSOL | –
6 | CCCCn1c(Cc2cc(OC)c(OC)c(OC)c2Cl)nc2c(N)ncnc21 [PU3PhCl, 9-butyl-8-(2-chloro-3,4,5-trimethoxy-benzyl)-9H-purin-6-ylamine] | – | – | – | – | 19 | 36 | 25 | 4.6 | 18.6 | 30 | – | –
7 | CC/C=C\Cn1c(Cc2cc(OC)c(OC)c(OC)c2)nc2c(N)ncnc21 [PU7] | 64 | 80 | – | – | – | – | – | 75 | 17.6 | – | – | 70
8 | C=CCCn1c(Cc2cc(OC)c(OC)c(OC)c2)nc2c(N)nc(F)nc21 [PU8F, 2-Fluoro-9-but-3-enyl-8-(3,4,5-trimethoxy-benzyl)-9H-purin-6-ylamine] | – | – | – | – | 33 | 25 | 30 | 9.8 | 5 | 35 | – | –
9 | C=CCCn1c(Cc2cc(OC)c(OC)c(OC)c2)nc2c(N)ncnc21 [PU8] | 41 | 73 | – | – | – | – | – | 10.6 | 4 | – | – | 30
10 | COc1cc(Cc2nc3c(N)ncnc3n2CCCC(C)C)cc(OC)c1OC [PU9] | 69 | 85 | – | – | – | – | – | 114 | 28 | – | – | –
11 | COc1cc(Cc2nc3c(N)ncnc3n2C)cc(OC)c1OC [PU13] | 70 | 75 | – | – | – | – | – | – | – | – | – | –
12 | CCC(CC)Cn1c(Cc2cc(OC)c(OC)c(OC)c2)nc2c(N)ncnc21 [PU14] | 160 | 130 | – | – | – | – | – | 52.1 | 62.3 | – | – | > 100
13 | COc1cc(Cc2nc3c(N)ncnc3n2CC2CC2)cc(OC)c1OC [PU15] | 75 | 70 | – | – | – | – | – | 16.2 | 12 | – | – | 70
14 | COc1cc(Cc2nc3c(N)nc(F)nc3n2CC2CCC2)cc(OC)c1OC [PU16F, 2-Fluoro-9-cyclobutylmethyl-8-(3,4,5-trimethoxy-benzyl)-9H-purin-6-ylamine] | – | – | – | – | 41 | 21 | 40 | 9.2 | 30.7 | 31 | – | –
15 | COc1cc(Cc2nc3c(N)ncnc3n2CC2CCC2)cc(OC)c1OC [PU16] | 46 | 68 | – | – | – | – | – | 32 | 17 | – | – | 60
16 | COc1cc(Cc2nc3c(N)nc(F)nc3n2CC2CCCO2)cc(OC)c1OC (stereo not shown) [PU20F, 2-Fluoro-9-(tetrahydrofuran-2-ylmethyl)-8-(3,4,5-trimethoxy-benzyl)-9H-purin-6-ylamine] | – | – | – | – | 23 | 21 | 20 | 6.8 | 2.3 | 25 | – | –
17 | COc1cc(Cc2nc3c(N)ncnc3n2CC2CCCO2)cc(OC)c1OC (stereo not shown) [PU20] | – | – | – | – | 92 | 80 | 70 | 3.4 | 4.4 | – | – | –
18 | CCCCCn1c(Cc2cc(OC)c(OC)c(OC)c2)nc2c(N)nc(F)nc21 [PU21F, 2-Fluoro-9-pentyl-8-(3,4,5-trimethoxy-benzyl)-9H-purin-6-ylamine] | – | – | – | – | 36 | 19 | 35 | 8.9 | 22 | 43 | – | –
19 | CCCCCn1c(Cc2cc(OC)c(OC)c(OC)c2)nc2c(N)ncnc21 [PU21] | – | – | – | – | 62 | 73 | 50 | 11.8 | 22.5 | – | – | –
20 | CCn1c(Cc2cc(OC)c(OC)c(OC)c2)nc2c(N)ncnc21 [PU22] | 80 | 118 | – | – | – | – | – | – | – | – | – | –
21 | CC/C=C/Cn1c(Cc2cc(OC)c(OC)c(OC)c2)nc2c(N)ncnc21 [PU23] | 47 | 55 | – | – | – | – | – | 9.5 | 13.3 | – | – | 50
22 | C#CCCCn1c(Cc2cc(OC)c(OC)c(OC)c2)nc2c(N)ncnc21 [PU24] | – | – | – | – | 24 | 41 | 20 | 1.5 | 2.6 | – | – | –
23 | COc1cc(Cc2nc3c(N)ncnc3n2CC(OC)OC)cc(OC)c1OC [PU25] | 82 | – | – | – | – | – | – | – | – | – | – | –
24 | CCC(C)Cn1c(Cc2cc(OC)c(OC)c(OC)c2)nc2c(N)ncnc21 (stereo not shown) [PU26] | 62 | 71 | – | – | – | – | – | 15.7 | 25.3 | – | – | 70
25 | COc1cc(Cc2nc3c(N)nc(F)nc3n2CCOC(C)C)cc(OC)c1OC [PU29F, 2-Fluoro-9-(2-isopropoxy-ethyl)-8-(3,4,5-trimethoxy-benzyl)-9H-purin-6-ylamine] | – | – | – | – | 16 | 16 | 15 | 1.3 | 2 | – | – | –
26 | COc1cc(Cc2nc3c(N)ncnc3n2CCOC(C)C)cc(OC)c1OC [PU29] | 39 | 72 | – | – | – | – | – | 1.7 | 1.4 | – | – | 45
27 | COc1cc(Cc2nc3c(N)ncnc3n2CC2(C)CC2)cc(OC)c1OC [PU30] | 111 | – | – | – | – | – | – | 47.8 | 111 | – | – | 120
28 | COc1cc(Cc2nc3c(N)ncnc3n2CC(C)C)cc(OC)c1OC [PU41] | 98 | 70 | – | – | – | – | – | 20.4 | 16.6 | – | – | 100
29 | CCCn1c(Cc2cc(OC)c(OC)c(OC)c2)nc2c(N)ncnc21 [PU43] | 47 | 54 | – | – | – | – | – | 10.8 | 6.6 | – | – | 50
30 | COCCn1c(Cc2cc(OC)c(OC)c(OC)c2)nc2c(N)ncnc21 [PU44] | 65 | 79 | – | – | – | – | – | 12.4 | 4.1 | – | – | 85
